{"source": "patent US20250129012A1", "about": "“ANTI-INFLAMMATORY AND ANALGESIC COMPOUNDS AND USE THEREOF” (JIANGSU ATOM BIOSCIENCE AND PHARMACEUTICAL CO., LTD., priority 2021, published 2025)", "key": {"[1]": {"experiment": "In vivo pharmacokinetics in SD rats", "details": "for AUC(0-inf): read-out: AUCINF; for MRT inf: read-out: MRTINF", "outline": "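SD rats received compound intravenously (0.5 mg/mL solution) or by oral gavage (1 mg/mL, fasted overnight), both formulated in DMSO/Solutol HS15/saline. Plasma compound concentrations were measured by LC/MS/MS. Non-compartmental parameters were then calculated.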"}, "[2]": {"system": "gouty arthritis rats (sodium urate, right ankle and knee joint cavities)", "experiment": "Pharmacodynamics experiment B on gouty arthritis rats: ankle swelling rate", "type": "in vivo, SD rats", "details": "for change in vivo at 0.6 mg/kg / change in vivo at 1.2 mg/kg: Rattus norvegicus, po, read-out: Swelling rate (ankle)", "outline": "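Male SD rats dosed by gavage at 0.6 mg/kg (0.5% CMC-Na suspension) daily for 7 days before and 3 days after injection of 0.2 mL sodium urate solution into right ankle and knee joints. Ankle circumference measured before and 2-48 h after modeling; swelling rate = swelling degree/baseline ×100%, mean values.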"}, "[3]": {"system": "gouty arthritis in rats (urate crystals, left ankle joint)", "experiment": "Pharmacodynamics experiment A on gouty arthritis in rats: pain score", "type": "in vivo, SD rats", "parameters": "Pain score: scale not given here", "details": "0.6 mg/kg gavage; for Pain score: Mean ± SEM", "protocol": "Compounds 2, 17, 26 and 27 were prepared by grinding with 0.5% CMC-Na into a suspension of the corresponding concentration (0.06 mg/mL) for gavage before administration, and the volume of administration was 10 mL/kg. […] Before use, 0.5% CMC-Na was used for grinding and prepared into a suspension of the corresponding concentration (0.06 mg/mL) for gavage, and the volume of drug administered was 10 mL/kg.\nEach group of subjects was prepared into a suspension of the corresponding concentration, and the administration volume was 10 mL/kg.\nThe crystalline arthritis model was prepared by intra-articular injection of urate crystals (40 mg/mL, in the left ankle joint of each rat). Different doses of the test drug were given separately by gavage administration. The day of administration was defined as day 1 of the experiment, and the drug was administered once a day for 10 consecutive days (pre-administration of the drug for 7 days prior to modeling, modeling on day 8, and continuation of the drug for 3 days). The experiment ended on day 10.\nThe pain level was scored using the flexion and extension joint pain test scoring method at the same time point.\nThe data obtained from the experiment were statistically analyzed using IBM SPSS Statistics 22.0. All measurements were expressed as Mean±S.E.M s. The data were analyzed using SPSS 22.0 statistical software and variance chi-square test was performed on the parameters."}, "[4]": {"details": "death 35 h after ingestion; cited from earlier work"}, "IL-6": {"system": "IL-6", "experiment": "Inflammatory factor experiment A: IL-6 in gouty arthritis rats", "type": "in vivo, SD rats", "details": "synovial tissue of knee joints; dose 0.6 mg/kg gavage; day 10", "protocol": "Compounds 14, 17 and 26 were prepared by grinding with 0.5% CMC-Na before administration and into a suspension for gavage at the corresponding concentration (0.06 mg/mL), with a dosage volume of 10 mL/kg. Colchicine, purchased from Sun Chemical Technology (Shanghai) Co., Ltd. with batch no. 49ETRRAS, and was prepared by grinding with 0.5% CMC-Na before administration and into a suspension for gavage at the corresponding concentration (0.06 mg/mL), with a dosage volume of 10 mL/kg.\nThe compounds in each group were prepared into a suspension of the corresponding concentration, and the dosage volume was 10 mL/kg.\nThe crystalline arthritis model was prepared by intra-articular injection of urate crystals (40 mg/mL in the left ankle joint of each rat). Different doses of the test compounds were given separately by gavage administration. The day of administration was defined as day 1 of the experiment, and the compounds were administered once a day for 10 consecutive days (pre-administration of the drug for 7 days prior to modeling, modeling on day 8, and continuation of the drug for 3 days). The experiment ended on day 10. […]"}, "[5]": {"details": "Sprague-Dawley, rat, in vivo, po, Gavage - 10 mg/kg"}, "[6]": {"details": "Sprague-Dawley, rat, in vivo, Intravenous injection - 1 mg/kg"}}, "note": "Like-named read-outs stand apart in the source and are kept apart here.", "data": [{"smiles": "COc1cc2c(c(OC)c1OC)-c1ccc(OC)c(=O)cc1[C@@H](NC(C)=O)CC2", "note": "[colchicine, reference compound]", "values": [{"measurement": "F", "setting": "[1]; Gavage - 10 mg/kg, calculated by AUCINF", "value": 8.73, "unit": "%"}, {"measurement": "AUC(0-inf)", "setting": "[1]; [5]", "value": 735, "unit": "ng·h/mL"}, {"measurement": "Cmax", "setting": "[1]; Sprague-Dawley, rat, in vivo, po, Gavage - 10 mg/kg, read-out: Cmax", "value": 175, "unit": "ng/mL"}, {"measurement": "MRT inf", "setting": "[1]; [5]", "value": 25.7, "unit": "h"}, {"measurement": "Tmax", "setting": "[1]; Sprague-Dawley, rat, in vivo, po, Gavage - 10 mg/kg, read-out: Tmax", "value": 25, "unit": "min"}, {"measurement": "AUC(0-inf)", "setting": "[1]; [6]", "value": 567, "unit": "ng·h/mL"}, {"measurement": "clearance", "setting": "[1]; Sprague-Dawley, rat, in vivo, Intravenous injection - 1 mg/kg, read-out: CL (converted)", "value": 31.8, "unit": "mL/min/kg"}, {"measurement": "MRT inf", "setting": "[1]; [6]", "value": 11, "unit": "h"}, {"measurement": "Vd", "setting": "[1]; Sprague-Dawley, rat, in vivo, Intravenous injection - 1 mg/kg, read-out: VSS", "value": 17.6, "unit": "L/kg"}, {"measurement": "change in vivo at 0.6 mg/kg", "setting": "[2]; 2 h", "value": 10.5, "unit": "%"}, {"measurement": "change in vivo at 1.2 mg/kg", "setting": "[2]; 2 h", "value": 8.97, "unit": "%"}, {"measurement": "change in vivo at 0.6 mg/kg", "setting": "[2]; 4 h", "value": 15.7, "unit": "%"}, {"measurement": "change in vivo at 1.2 mg/kg", "setting": "[2]; 4 h", "value": 14.9, "unit": "%"}, {"measurement": "change in vivo at 0.6 mg/kg", "setting": "[2]; 8 h", "value": 20.6, "unit": "%"}, {"measurement": "change in vivo at 1.2 mg/kg", "setting": "[2]; 8 h", "value": 17.2, "unit": "%"}, {"measurement": "change in vivo at 0.6 mg/kg", "setting": "[2]; 10 h", "value": 23.4, "unit": "%"}, {"measurement": "change in vivo at 1.2 mg/kg", "setting": "[2]; 10 h", "value": 19.4, "unit": "%"}, {"measurement": "change in vivo at 0.6 mg/kg", "setting": "[2]; 24 h", "value": 24.4, "unit": "%"}, {"measurement": "change in vivo at 1.2 mg/kg", "setting": "[2]; 24 h", "value": 19.8, "unit": "%"}, {"measurement": "change in vivo at 0.6 mg/kg", "setting": "[2]; 48 h", "value": 12.1, "unit": "%"}, {"measurement": "change in vivo at 1.2 mg/kg", "setting": "[2]; 48 h", "value": 9.29, "unit": "%"}, {"measurement": "Ankle swelling rate versus model group, in words", "setting": "[2]; compounds 0.6 mg/kg, colchicine 0.6 and 1.2 mg/kg", "value": "significantly (P<0.01) reduced"}, {"measurement": "Pain versus model group, in words", "setting": "[3]; time points after modeling, P<0.05 or P<0.01", "value": "improved the pain at 2 h, 8 h, 24 h, and 48 h"}, {"measurement": "Pain score", "setting": "[3]; 2 h after modeling", "value": "3.30 ± 0.60"}, {"measurement": "Pain score", "setting": "[3]; 4 h after modeling", "value": "2.90 ± 0.71"}, {"measurement": "Pain score", "setting": "[3]; 8 h after modeling", "value": "3.20 ± 0.61"}, {"measurement": "Pain score", "setting": "[3]; 10 h after modeling", "value": "2.60 ± 0.70"}, {"measurement": "Pain score", "setting": "[3]; 24 h after modeling", "value": "1.40 ± 0.58"}, {"measurement": "Pain score", "setting": "[3]; 48 h after modeling", "value": "0.80 ± 0.44"}, {"measurement": "Pain score", "setting": "[3]; before modeling", "value": "0.00 ± 0.00"}, {"measurement": "Dose with reported death cases", "setting": "[4]", "value": 0.4, "unit": "mg/kg"}, {"measurement": "Decreased IL-6 percentage %", "setting": "IL-6", "value": 107.14, "unit": "%"}]}]}
